The supplement of paper PMC10307832

Assays:
Test in all cases: relative viability (nuclei count vs DMSO), 5 days (fraction); higher = more cells survive
Kobe2602 + Crizotinib = compound: C1=CC(=CC=C1NC(=S)NNC2=C(C=C(C=C2[N+](=O)[O-])C(F)(F)F)[N+](=O)[O-])F [Kobe2602] + C[C@@H](Oc1cc(-c2cnn(C3CCNCC3)c2)cnc1N)c1c(Cl)ccc(F)c1Cl [Crizotinib] (partner 1 µM)
How it was run: (§1)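 Relative viability divides the nuclei count in treated wells by that in vehicle wells. Lung cancer cell lines were seeded in 1536-well plates, dosed by pin tool the next day, and fixed and stained after 5 days in one step with final 0.05% Triton X-100, 1% formaldehyde and 1 ug/ml Hoechst. Dosing was a single drug or a fixed anchor-drug dose plus five library-drug doses (not always all listed) in √10 steps, and values are medians of duplicate plates imaged at 4×.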

Kobe2602 + Linsitinib = compound: C1=CC(=CC=C1NC(=S)NNC2=C(C=C(C=C2[N+](=O)[O-])C(F)(F)F)[N+](=O)[O-])F [Kobe2602] + C[C@]1(O)C[C@@H](c2nc(-c3ccc4ccc(-c5ccccc5)nc4c3)c3c(N)nccn32)C1 [Linsitinib] (partner 1 µM)
How it was run: as §1

Kobe2602 + Decitabine = compound: C1=CC(=CC=C1NC(=S)NNC2=C(C=C(C=C2[N+](=O)[O-])C(F)(F)F)[N+](=O)[O-])F [Kobe2602] + Nc1ncn([C@H]2C[C@H](O)[C@@H](CO)O2)c(=O)n1 [Decitabine] (partner 2 µM)
How it was run: as §1

Zosuquidar + Bortezomib = compound: O[C@@H](COc1cccc2ncccc12)CN1CCN([C@@H]2c3ccccc3[C@@H]3[C@H](c4ccccc42)C3(F)F)CC1 [Zosuquidar] + CC(C)C[C@H](NC(=O)[C@H](Cc1ccccc1)NC(=O)c1cnccn1)B(O)O [Bortezomib] (partner 0.002 µM)
How it was run: as §1

| Cell Line | relative viability (Kobe2602 + Crizotinib; first compound 0.2 µM) | relative viability (Kobe2602 + Crizotinib; first compound 0.6325 µM) | relative viability (Kobe2602 + Crizotinib; first compound 2 µM) | relative viability (Kobe2602 + Crizotinib; first compound 6.325 µM) | relative viability (Kobe2602 + Crizotinib; first compound 20 µM) | relative viability (Kobe2602 + Linsitinib; first compound 0.2 µM) | relative viability (Kobe2602 + Linsitinib; first compound 0.6325 µM) | relative viability (Kobe2602 + Linsitinib; first compound 2 µM) | relative viability (Kobe2602 + Linsitinib; first compound 6.325 µM) | relative viability (Kobe2602 + Linsitinib; first compound 20 µM) | relative viability (Kobe2602 + Decitabine; first compound 0.2 µM) | relative viability (Kobe2602 + Decitabine; first compound 0.6325 µM) | relative viability (Kobe2602 + Decitabine; first compound 2 µM) | relative viability (Kobe2602 + Decitabine; first compound 6.325 µM) | relative viability (Kobe2602 + Decitabine; first compound 20 µM) | relative viability (Zosuquidar + Bortezomib; first compound 0.01 µM) | relative viability (Zosuquidar + Bortezomib; first compound 0.03162 µM) | relative viability (Zosuquidar + Bortezomib; first compound 0.1 µM) | relative viability (Zosuquidar + Bortezomib; first compound 0.3162 µM) | relative viability (Zosuquidar + Bortezomib; first compound 1 µM) |
| --- | --- | --- | --- | --- | --- | --- | --- | --- | --- | --- | --- | --- | --- | --- | --- | --- | --- | --- | --- | --- |
| 201T | 1.07 | 1.02 | 1.04 | 1.02 | 1.1 | 0.968 | 1.04 | 1.05 | 0.955 | 0.941 | 0.89 | 0.892 | 0.872 | 0.949 | 0.876 | 1.09 | 1.05 | 0.939 | 1.05 | 1.06 |
| A549 | 0.759 | 0.723 | 0.781 | 0.764 | 0.8 | 0.562 | 0.687 | 0.583 | 0.524 | 0.578 | 0.228 | 0.266 | 0.414 | 0.251 | 0.247 | – | – | – | – | – |
| A-427 | 0.898 | 0.903 | 0.843 | 1 | 1.01 | 1.1 | 1.15 | 1.09 | 0.954 | 1.17 | 0.589 | 0.628 | 0.51 | 0.539 | 0.616 | 0.923 | 0.971 | 0.87 | 1.06 | 0.901 |
| ABC-1 | 1 | 1.04 | 1.06 | 1.21 | 1.08 | 0.609 | 0.984 | 0.722 | 0.876 | 0.735 | 1.11 | 1.31 | 1.05 | 1.18 | 1.16 | 0.361 | 0.328 | 0.322 | 0.379 | 0.269 |
| BEN | 0.948 | 0.727 | 0.894 | 0.843 | 0.819 | 0.988 | 1.06 | 0.967 | 0.858 | 0.915 | 0.707 | 0.734 | 0.709 | 0.711 | 0.92 | 0.928 | 0.734 | 0.651 | 0.882 | 0.773 |
| CAL-12T | 0.604 | 0.569 | 0.618 | 0.641 | 0.549 | 0.707 | 0.821 | 0.705 | 0.916 | 0.709 | – | – | – | – | – | 0.974 | 1.15 | – | 1.03 | 0.735 |
| COR-L23 | 0.656 | 0.573 | 0.647 | 0.745 | 0.7 | 0.798 | 1.09 | 0.941 | 0.894 | 0.939 | 0.455 | 0.462 | 0.409 | 0.468 | 0.515 | 0.925 | 0.969 | 0.893 | 0.877 | 1.08 |
| COR-L 105 | 0.85 | 0.838 | 0.653 | 0.966 | 0.831 | 0.711 | 0.985 | 0.574 | 0.944 | 0.988 | 0.706 | 0.679 | 0.473 | 0.739 | 0.602 | 0.738 | 0.742 | 0.899 | 1.16 | 0.874 |
| Calu-6 | 0.84 | 0.78 | 0.786 | 0.744 | 0.813 | 0.911 | 0.975 | 0.897 | 0.954 | 0.895 | – | – | – | – | – | 0.955 | 1.05 | 1.13 | 1.05 | 1.15 |
| ChaGo-K-1 | 1.16 | 1.2 | 1.14 | 1.13 | 0.935 | – | – | – | – | – | 0.538 | 0.524 | 0.512 | 0.469 | 0.481 | 0.854 | 0.966 | 1.08 | 0.967 | 0.787 |
| EBC-1 | 0.225 | 0.239 | 0.185 | 0.203 | 0.216 | 0.796 | 0.975 | 0.893 | 0.938 | 0.871 | – | – | – | – | – | 0.649 | 0.553 | 0.652 | 0.591 | 0.547 |
| EKVX | 1.11 | 0.705 | 0.865 | 0.887 | 0.956 | 1.02 | 1.02 | 0.919 | 0.971 | 1.03 | 0.337 | 0.377 | 0.349 | 0.43 | 0.385 | 1.05 | 0.975 | 0.839 | 0.984 | 1.02 |
| EMC-BAC-2 | 0.759 | 0.799 | 0.754 | 0.755 | 0.747 | 0.794 | 0.869 | 0.817 | 0.796 | 0.793 | 0.973 | 0.961 | 0.961 | 1.01 | 0.973 | 1.02 | 1.07 | 1.02 | 1.22 | 1.09 |
| EPLC-272H | 0.772 | 0.905 | 0.967 | 0.899 | 0.914 | 1.2 | 1.2 | 1.23 | 1.36 | 0.447 | 0.341 | 0.381 | 0.411 | 0.319 | 0.395 | 0.844 | 0.956 | 0.998 | 1.16 | 0.938 |
| H3255 | 0.906 | 1.12 | 0.802 | 0.839 | 0.874 | 0.875 | 1.09 | 0.941 | 0.838 | 0.87 | 0.554 | 0.719 | 0.57 | 0.634 | 0.653 | 0.788 | 0.871 | 0.661 | 0.798 | 0.569 |
| HARA | 1.05 | 1.01 | 1.05 | 1.24 | 0.981 | 0.959 | 1.02 | 0.948 | 0.839 | 0.847 | 0.566 | 0.591 | 0.5 | 0.537 | 0.499 | 1.14 | 1.14 | 1.08 | 1.13 | 1.14 |
| HCC-15 | 0.747 | 0.803 | 0.727 | 0.769 | 0.752 | 0.881 | 0.919 | 0.872 | 0.832 | 0.899 | 0.662 | 0.649 | 0.537 | 0.627 | 0.62 | 0.925 | 0.998 | 0.956 | 0.995 | 1.04 |
